From patent US20070269384A1, “Use of perfluoroalkyl-containing metal complexes as contrast media for diagnosis of Alzheimer's disease” (priority 2006, published 2007)

Legend:
[1] = Critical micelle formation concentration (CMC) by tensiometry; format: physicochemical
Protocol: In aqueous systems, these amphiphilic molecules show the properties that are characteristic of standard surfactants (such as, e.g., sodium dodecyl sulfate, SDS). Thus, they reduce the surface tension of the water. By tensiometry, the so-called CMC (critical micelle formation concentration in mol/l) can be determined. To this end, the surface tension is determined based on the concentration of the substance to be measured. The CMC can be calculated from the course of the surface tension (c) function that is obtained. The critical micelle formation concentration of the compounds according to the invention should be <10^−3 mol/l, preferably <10^−4 mol/l.
(§1) Both the determination of CMC and the photon correlation spectroscopy are described in H.-D. Dorfler, “Grenzflächen- and Kolloidchemie [Interface and Colloid Chemistry],” Weinheim, New York, Basel, Cambridge, Tokyo, VSH 1994.

[2] = Hydrodynamic micelle diameter 2 Rh by photon-correlation spectroscopy; format: physicochemical
Source text: The amphiphilic compounds according to the invention are combined in solution and are present as aggregates. The size (2 Rh) of such aggregates (e.g., micelles, rods, oblates, etc.) can be determined with the aid of photon-correlation spectroscopy (PCS).
As a second criterion for preferably usable metal complexes, therefore, the hydrodynamic micelle diameter 2 Rh, which must be >1 nm, is used. Those perfluoroalkyl-containing metal complexes, whose 2 Rh≧3 nm, quite especially preferably >4 nm, are especially suitable according to the invention.
as §1

amyloid plaques = assay: MRT visualization of Alzheimer lesions after intravenous administration in APP-23 mice; format: in vivo; conditions: 0.5 mmol of Gd/kg i.v., up to 60 minutes after administration, 7T, localization confirmed by Puchtler's Congo red stain
Protocol: MRT Visualization of Alzheimer Lesions After Intravenous Administration of Contrast Medium in APP-23 Mice
The images of FIG. 1 show MR images of the brain before as well as up to 60 minutes after intravenous administration of 0.5 mmol of Gd/kg of body weight of metal complex 13 (MK13) in APP-23 mice (mice with genetically-induced Alzheimer's disease). […] The localization of the amyloid-containing structures was confirmed by means of Puchtler's Congo red stain. With this test, the suitability of the compounds according to the invention as in-vivo markers for amyloid plaques in the brains of mice with Alzheimer's disease could be shown.

[3] = Proton relaxivity R1 in bovine plasma (Minispec P 20); format: physicochemical; conditions: in plasma at 40° C., magnetic field strength 0.47 Tesla
Protocol: As a third criterion for especially suitable MR contrast media, the proton relaxivity (relaxivity) in plasma (R1) at 40° C. and a field strength of 0.47 Tesla is used. The relaxivity, which is indicated in [l/mmol*s], is the quantitative measurement for the shortening of the relaxation time T1 of the protons. For the purpose according to the invention, the relaxivity must be as high as possible and must be >10 l/mmol*s, preferably >13 l/mmol*s, especially preferably >15 l/mmol*s.
The relaxivity R1 [l/mmol*s] of the MR contrast media according to the invention was determined with the Minispec P 20 device of the Bruker Company. The measurements were made at 40° C. and a field strength of 0.47 Tesla. 8 measuring points were recorded in each T1 sequence (180°-T1-90°, inversion recovery). As a medium, bovine plasma of the Kraeber Company was used. The contrast medium concentrations [mmol/l] in the preparations were between 0.30 and 1.16.

| Molecule | CMC (Critical Micelle Formation Concentration) [1] [mol/L] | 2 Rh (Hydrodynamic Micelle Diameter) [2] [nm] | MR signal in the amyloid plaques of the diseased brains (T1-weighted spin echo images) (amyloid plaques) | R1 (Relaxivity) [3] [L/mmol/s] |
| --- | --- | --- | --- | --- |
| CC(C(=O)NCC(=O)NCCCC[C@H](NC(=O)CO[C@H]1O[C@H](CO)[C@@H](O)[C@H](O)[C@@H]1O)C(=O)N1CCN(S(=O)(=O)C(F)(F)C(F)(F)C(F)(F)C(F)(F)C(F)(F)C(F)(F)C(F)(F)C(F)(F)F)CC1)N1CCN(CC(=O)[O-])CCN(CC(=O)[O-])CCN(CC(=O)[O-])CC1.[Gd+3] (stereo partly drawn) [MK 13, gadolinium complex of 6-N-[1,4,7-tris(carboxylatomethyl)-1,4,7,10-tetraazacyclododecane-10-N-(pentanoyl-3-aza-4-oxo-5-methyl-5-yl)]-2-N-[1-O-α-D-carbonylmethyl-manno-pyranose]-L-lysine-[1-(4-perfluorooctylsulfonyl)-piperazine]-amide] | 2.5e-06 | 4.4 | strong signal increase | 15.9 |
| gadolinium complex of 1,4,7-tris{1,4,7-tris(N-(carboxylatomethyl)-10-[N-1-methyl-3,6-diaza-2,5,8-trioxooctane-1,8-diyl)]-1,4,7,10-tetraazacyclododecane, Gd complex}-10-[N-2H, 2H, 4H, 4H, 5H, 5H-3-oxa-perfluoro-tridecanoyl]-1,4,7,10-tetraazacyclododecane [MK 12] | 0.00089 | 2.2 | – | 19.5 |
